Assay results from patent publication US4638070A, “Heterocyclic amino-alcohol derivatives” (Continental Pharma, priority 1980, dated 1987).

What was measured:
[1] = Acute toxicity, oral, LD50 (Litchfield and Wilcoxon); conditions: mouse, in vivo, fasted male mice, confidence limits p=95% in brackets
Description: (1) The acute toxicity was determined on fasted male mice. The tested substances were orally administered and LD50 values (lethal dose for 50% of animals) were calculated according to the method of Litchfield and Wilcoxon (J. Pharmacol. exp. Ther. 96, 94-113, 1949). These LD50 values are given in mg/kg and also, when possible, with their confidence limits for p=95%.

[2] = tested on: unanaesthetized, hypertension-suffering rat; assay: Antihypertensive activity (systolic arterial pressure), oral; format: in vivo; conditions: 60 mg/kg, hypertensive rat, 3 hours
In short: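 Conscious hypertensive rats given compound orally at 60 mg/kg; systolic arterial pressure measured every 30 min for 2 h pre-dose and 3 h post-dose. Scored O (no fall), + (<10 mm Hg), ++ (10–20 mm Hg), +++ (>20 mm Hg).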

femoral artery = assay: Vasodilator activity, femoral artery (technique of perfused paw); format: in vivo; parameters: key: O: no action; +: slight activity; ++: effect equal to half the effect of papaverine; +++: effect equal to that of papaverine; ++++: effect higher than that of papaverine; conditions: intra-arterial, 30 mg/kg, anaesthetized dog, vs papaverine at same dose
Description: (3) The vasodilator activity was measured at the level of femoral artery on anaesthetized dog (technique of perfused paw). The tested substances were given intra-arterially at the rate of 30 mg/kg. Results are expressed with respect to papaverine tested at the same dose.
++: effect equal to half the effect of papaverine.
+++: effect equal to that of papaverine.
++++: effect higher than that of papaverine.

[3] = tested on: guinea-pig ileum (histamine contractions); assay: Antispasmodic activity in vitro, contractions caused by histamine; conditions: added 15 minutes before spasm-producing agent
Description: (§1) (4) The antispasmodic activity was measured in vitro, on guinea-pig ileum, the contractions of which were caused by histammne (Hist.), acetylcholine (Achol) or barium chloride (BaCl2). The tested products were added to perfusion bath 15 minutes before the spasm-producing agents.
(§2) The dose is given in micograms (μg) per ml of bath causing complete spasm inhibition.

[4] = tested on: guinea-pig ileum (acetylcholine contractions); assay: Antispasmodic activity in vitro, contractions caused by acetylcholine; conditions: added 15 minutes before spasm-producing agent
Description: as §1, §2

Compound	LD50 [1] [mg/kg]	ANTIHYPERTENSIVE ACTIVITY [2]	VASODILATOR ACTIVITY (femoral artery)	ANTISPASMODIC ACTIVITY HIST. (dose causing complete spasm inhibition) [3] [μg per ml]	ANTISPASMODIC ACTIVITY ACHOL (dose causing complete spasm inhibition) [4] [μg per ml]
CCC(=O)OC(c1ccc2c(c1)CCS2)C(C)NCCCCc1ccccc1 (centres unmarked) [No 118]	2020	+++ (reduction higher than 20 mm Hg)	++	0.8	1.7
Cc1ccc(OCCNC(C)C(O)c2ccc3c(c2)CCCS3)cc1 (centres unmarked) [No 54]	> 4000	++ (reduction of 10 to 20 mm Hg)	+++	3.3	3.3
CC(NCCCCc1ccccc1)C(O)c1ccc2c(c1)CCC2 (centres unmarked) [No 163]	800	+++ (reduction higher than 20 mm Hg)	++	1.7	0.8
CC(NCCCCc1ccc(Cl)cc1)C(O)c1ccc2c(c1)CCS2 (centres unmarked) [No 29]	1750	+++ (reduction higher than 20 mm Hg)	++	1.7	1.7
CC(NCCCc1ccccc1)C(O)c1ccc2c(c1)CCC2 (centres unmarked) [No 165]	3800	+++ (reduction higher than 20 mm Hg)	+++	1.7	1.7
CC(NCCCSc1ccccc1)C(O)c1ccc2c(c1)CCCS2 (centres unmarked) [No 37]	> 4000	+++ (reduction higher than 20 mm Hg)	+++	1.7	1.7
CCCCCCCCNC(C)C(O)c1ccc2c(c1)CC(C)O2 (centres unmarked) [No 55]	350	+++ (reduction higher than 20 mm Hg)	+++	3.3	8.3
CC(NCCCc1ccccc1)C(O)c1ccc2c(c1)CCS2 (centres unmarked) [No 57]	> 2000	++ (reduction of 10 to 20 mm Hg)	+++	1.7	1.7
CC(NCCCOc1ccccc1)C(O)c1ccc2c(c1)CCCS2 (centres unmarked) [No 75]	> 4000	+++ (reduction higher than 20 mm Hg)	+++	0.8	1.7
CC(C)C(=O)OC(c1ccc2c(c1)CCS2)C(C)NCCCCc1ccccc1 (centres unmarked) [No 117]	2200	+++ (reduction higher than 20 mm Hg)	++++	1.7	0.8
CC1Cc2cc(C(O)C(C)NCCSc3ccccc3)ccc2S1 (centres unmarked) [No 106]	> 4000	++ (reduction of 10 to 20 mm Hg)	+++	1.7	1.7
CC(NCCOc1ccccc1)C(O)c1ccc2c(c1)CCC2 (centres unmarked) [No 168]	> 2000	+++ (reduction higher than 20 mm Hg)	++++	3.3	3.3
CC(NCCCSc1ccccc1)C(O)c1ccc2c(c1)CCCCS2 (centres unmarked) [No 39]	> 4000	++ (reduction of 10 to 20 mm Hg)	+++	1.7	0.8
